# Measured values published in ChEMBL document CHEMBL1128634, “Piperidine-ether based hNK1 antagonists 2: Investigation of the effect of N-substitution” (Bioorg Med Chem Lett, 1995).
# Legend:
# [1] = target: T1, Substance-K receptor (Homo sapiens, UniProt P21452); test: Tested for inhibition of human Neurokinin Tachykinin receptor 2.
# T1 sequence (P21452 whole entry): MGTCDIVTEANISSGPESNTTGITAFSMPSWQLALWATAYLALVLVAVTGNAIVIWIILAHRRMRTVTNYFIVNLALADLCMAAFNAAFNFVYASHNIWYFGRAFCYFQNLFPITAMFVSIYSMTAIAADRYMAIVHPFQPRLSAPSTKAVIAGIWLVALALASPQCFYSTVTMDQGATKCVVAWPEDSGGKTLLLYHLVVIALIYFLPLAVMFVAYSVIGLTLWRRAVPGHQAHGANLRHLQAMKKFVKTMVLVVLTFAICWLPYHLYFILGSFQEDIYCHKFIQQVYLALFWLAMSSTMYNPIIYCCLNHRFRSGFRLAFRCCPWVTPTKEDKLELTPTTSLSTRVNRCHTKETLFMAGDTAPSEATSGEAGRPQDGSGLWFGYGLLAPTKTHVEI
# [2] = Inhibition of [3H]diltiazem binding to L-type calcium channel of rabbit skeletal muscle; type: functional, tissue-based, Oryctolagus cuniculus, Muscle tissue
# [3] = target: Substance-P receptor (Homo sapiens, UniProt P25103); test: Displacement of [125I]- Substance P from human Neurokinin 1 (hNK1) receptor expressed in CHO cells; type: cell-based
# Substance-P receptor, sequence (P25103 whole entry): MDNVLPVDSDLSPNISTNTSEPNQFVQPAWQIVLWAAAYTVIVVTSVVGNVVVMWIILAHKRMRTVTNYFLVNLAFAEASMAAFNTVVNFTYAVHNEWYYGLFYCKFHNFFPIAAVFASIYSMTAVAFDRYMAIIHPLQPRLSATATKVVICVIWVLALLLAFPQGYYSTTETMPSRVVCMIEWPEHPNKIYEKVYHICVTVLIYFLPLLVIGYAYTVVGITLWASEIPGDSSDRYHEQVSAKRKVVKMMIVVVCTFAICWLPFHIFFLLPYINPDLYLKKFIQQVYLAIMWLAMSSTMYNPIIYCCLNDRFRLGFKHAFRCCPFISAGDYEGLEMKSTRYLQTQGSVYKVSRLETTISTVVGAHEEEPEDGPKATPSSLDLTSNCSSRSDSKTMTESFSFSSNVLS
# [4] = target: T2, Neuromedin-K receptor (Homo sapiens, UniProt P29371); test: Tested for inhibition of human Tachykinin receptor 3
# T2 sequence (P29371 whole entry): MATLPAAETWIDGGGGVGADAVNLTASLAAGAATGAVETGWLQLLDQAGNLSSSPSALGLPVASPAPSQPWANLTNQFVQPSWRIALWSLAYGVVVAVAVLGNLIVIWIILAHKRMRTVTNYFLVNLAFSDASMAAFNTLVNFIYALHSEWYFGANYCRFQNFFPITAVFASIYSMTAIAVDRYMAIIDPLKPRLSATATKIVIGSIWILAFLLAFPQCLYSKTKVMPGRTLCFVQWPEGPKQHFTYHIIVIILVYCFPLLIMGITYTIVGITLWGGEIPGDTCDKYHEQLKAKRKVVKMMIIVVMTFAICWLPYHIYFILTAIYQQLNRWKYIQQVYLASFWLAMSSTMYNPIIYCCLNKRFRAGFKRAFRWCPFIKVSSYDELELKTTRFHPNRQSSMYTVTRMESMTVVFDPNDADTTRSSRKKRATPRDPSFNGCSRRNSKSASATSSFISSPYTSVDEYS
# [5] = Inhibition of [3H]diltiazem binding to L-type calcium channel of rabbit skeletal muscle at 5 uM; type: functional; conditions: Oryctolagus cuniculus, Muscle tissue
# [6] = pKa value of the compound; type: physicochemical
# [7] = Inhibition of [3H]diltiazem binding to L-type calcium channel of rabbit skeletal muscle at 30 uM; type: functional; conditions: Oryctolagus cuniculus, Muscle tissue
compound,measurement,setting,value
FC(F)(F)c1cc(CO[C@H]2CCCN[C@H]2c2ccccc2)cc(C(F)(F)F)c1,IC50,[1],> 1000 nM
same,IC50,[2],760 nM
same,IC50,[3],0.87 nM
same,IC50,[4],> 1000 nM
CN(C)C(=O)CN1CCC[C@H](OCc2cc(C(F)(F)F)cc(C(F)(F)F)c2)[C@@H]1c1ccccc1,inhibition at 5 µM,[5],0%
NC(=O)CCN1CCC[C@H](OCc2cc(C(F)(F)F)cc(C(F)(F)F)c2)[C@@H]1c1ccccc1,inhibition at 5 µM,[5],98%
same,pKa,[6],6.5
NC(=O)CCCN1CCC[C@H](OCc2cc(C(F)(F)F)cc(C(F)(F)F)c2)[C@@H]1c1ccccc1,inhibition at 5 µM,[5],98%
COC(=O)C(=O)N1CCC[C@H](OCc2cc(C(F)(F)F)cc(C(F)(F)F)c2)[C@@H]1c1ccccc1,inhibition at 5 µM,[5],0%
O=C(O)CN1CCC[C@H](OCc2cc(C(F)(F)F)cc(C(F)(F)F)c2)[C@@H]1c1ccccc1,inhibition at 5 µM,[5],7%
COC(=O)CN1CCC[C@H](OCc2cc(C(F)(F)F)cc(C(F)(F)F)c2)[C@@H]1c1ccccc1,IC50,[2],26 nM
NC(=O)CN1CCC[C@H](OCc2cc(C(F)(F)F)cc(C(F)(F)F)c2)[C@@H]1c1ccccc1,inhibition at 30 µM,[7],16%
same,pKa,[6],5.4
CC(=O)N1CCC[C@H](OCc2cc(C(F)(F)F)cc(C(F)(F)F)c2)[C@@H]1c1ccccc1,inhibition at 5 µM,[5],0%
CN1CCC[C@H](OCc2cc(C(F)(F)F)cc(C(F)(F)F)c2)[C@@H]1c1ccccc1,IC50,[2],720 nM
COc1ccccc1CN[C@H]1CCCN(CC(N)=O)[C@H]1c1ccccc1 (racemic),IC50,[3],227 nM
CNC(=O)CN1CCC[C@H](OCc2cc(C(F)(F)F)cc(C(F)(F)F)c2)[C@@H]1c1ccccc1,inhibition at 5 µM,[5],0%
NC(=O)C(=O)N1CCC[C@H](OCc2cc(C(F)(F)F)cc(C(F)(F)F)c2)[C@@H]1c1ccccc1,inhibition at 5 µM,[5],0%
same,IC50,[3],25 nM
FC(F)(F)c1cc(CO[C@H]2CCCN(Cc3ccccc3)[C@H]2c2ccccc2)cc(C(F)(F)F)c1,IC50,[2],4.1 nM
